≈ marks a conversion by molar mass, not a printed value.
Assays:
PBL [1] = assay: Stimulation of PHA-induced Homo sapiens (human) peripheral blood lymphocytes proliferation assessed as increase in [3H]-thymidine incorporation at 50 ug/ml after 72 hr by beta-scintillation counting analysis relative to control; type: functional
Neutrophil [2] = assay: Immunomodulatory activity in neutrophils assessed as decrease in oxidative burst after 30 min by luminol-enhanced chemiluminescence assay; type: functional, cell-based; conditions: for IC50: 0.5 h
PBL [3] = assay: Antiproliferative activity against PHA-induced Homo sapiens (human) peripheral blood lymphocytes assessed as inhibition of [3H]-thymidine incorporation after 72 hr by beta-scintillation counting analysis; type: functional, cell-based
PBL [4] = assay: Antiproliferative activity against PHA-induced Homo sapiens (human) peripheral blood lymphocytes assessed as inhibition of [3H]-thymidine incorporation at 50 ug/ml after 72 hr by beta-scintillation counting analysis relative to control; type: functional
Neutrophil [5] = assay: Immunomodulatory activity in neutrophils assessed as decrease in oxidative burst at 50 ug/mL after 30 min by luminol-enhanced chemiluminescence assay relative to control; type: functional; parameters: scale not given: the % may be the effect or the level left

Row | SMILES | Activity (PBL [1]) | Activity (Neutrophil [2]) | IC50 (Neutrophil [2]) | IC50 (PBL [3]) | inhibition at 50 µg/mL (PBL [4]) | Activity (Neutrophil [5]) | inhibition (PBL [3])
1 | C=C(C)[C@@H]1CC[C@]2(C(=O)O)CC[C@]3(C)[C@H](CC[C@@H]4[C@@]5(C)CC[C@H](O)C(C)(C)[C@@H]5CC[C@]43C)[C@@H]12 [BETULINIC ACID] | 38.2% | Dose-dependent effect | 11.1 µg/mL | – | – | – | –
2 | C=C(C)[C@@H]1CC[C@]2(C(=O)OCC)CC[C@]3(C)[C@H](CC[C@@H]4[C@@]5(C)CC[C@H](O)C(C)(C)[C@@H]5CC[C@]43C)[C@@H]12 [ETHYL BETULINATE] | – | – | 3.85 µg/mL | 12.9 µg/mL (≈ 26.6 µM) | – | – | –
3 | C=C(C)[C@@H]1CC[C@]2(C)CC[C@]3(C)[C@H](CC[C@@H]4[C@@]5(C)CC[C@H](OC(C)=O)C(C)(C)[C@@H]5CC[C@]43C)[C@@H]12 [LUPENYL ACETATE] | – | – | – | – | 38.9% | 41.12% | –
4 | C=C(C)[C@@H]1CC[C@]2(C)CC[C@]3(C)[C@H](CC[C@@H]4[C@@]5(C)CC[C@H](O)C(C)(C)[C@@H]5CC[C@]43C)[C@@H]12 [LUPEOL] | – | Dose-dependent effect | 11.3 µg/mL | 13.2 µg/mL (≈ 30.8 µM) | – | – | Dose-dependent effect

From ChEMBL document CHEMBL3044669, “Molecular modeling, structure activity relationship and immunomodulatory properties of some lupeol derivatives” (Med Chem Res, 2013)
